Results: PubChem BioAssay (NCI)
Where “and” joins values, the source holds several entries; their conditions need not be identical. Equal values may be shown once.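 96-well plates; 48 h exposure; 5 concentrations. Endpoints by linear interpolation between flanking doses. Not reached: highest tested concentration assigned. The concentration for 50% growth inhibition is given as GI50. TGI denotes the concentration required for complete inhibition of growth.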

Tests used:
Test in all cases: NCI anticancer screen, dose series, 48 h
[1] = tested on: SF-295 CNS
[2] = tested on: SN12C renal
[3] = tested on: NCI-H522 lung
[4] = tested on: SW-620 colon
[5] = tested on: ACHN renal
[6] = tested on: OVCAR-8 ovarian
[7] = tested on: M14 melanoma
[8] = tested on: HCT-116 colon
[9] = tested on: RPMI-8226 leukemia
[10] = tested on: UACC-257 melanoma
[11] = tested on: LOX IMVI melanoma

SMILES	TGI [1]	TGI [2]	TGI [3]	TGI [4]	TGI [5]	TGI [6]	TGI [7]	TGI [8]	TGI [9]	TGI [10]	TGI [11]	GI50 [2] [µM]	GI50 [11] [µM]	GI50 [3] [µM]	GI50 [4] [µM]	GI50 [6] [µM]	GI50 [7] [µM]	GI50 [9]	GI50 [10] [µM]
O=P1(c2ccccc2)C2=CCC=CC2C(c2ccccc2)N1Cc1ccccc1 (centres undefined)	28.8 µM	31.5 µM	24.6 µM	43 µM	30.4 µM	38.1 µM	32.3 µM	32.2 µM	30.5 µM	34.9 µM	–	–	–	–	–	–	–	–	–
CN1B(c2ccccc2)N(C)C(=O)N(C)C1=O	> 100 µM	> 100 µM	–	> 100 µM	> 100 µM	> 100 µM	> 100 µM	> 100 µM	> 100 µM	> 100 µM	–	–	–	–	–	–	–	–	–
CC[C@H](C)C1=C(OC(C)=O)[N@+]2([O-])Oc3ccc(-c4c(OC(C)=O)c(OC(C)=O)c(-c5ccc(OC(C)=O)cc5)c(OC(C)=O)c4OC(C)=O)cc3O[C@]2([C@@H](C)CC)C(=O)N1OC(C)=O	27.1 µM	> 50 µM	16 µM	> 50 µM	> 50 µM	37.6 µM	> 50 µM	> 50 µM	22.4 µM	> 50 µM	22.1 µM	–	–	–	–	–	–	–	–
Cc1cc(C)c(N=Nc2c(O)c(S(=O)(=O)O)cc3cc(S(=O)(=O)O)ccc23)cc1C	> 100 µM	> 100 µM	> 100 µM	> 100 µM	> 100 µM	> 100 µM	> 100 µM	> 100 µM	> 100 µM	> 100 µM	> 100 µM	–	–	–	–	–	–	–	–
O=S(=O)(/N=C(\NO)Nc1ccc(Cl)cc1)c1ccc(-c2ccccn2)s1	> 100 µM	72.9 µM	31.8 µM	> 100 µM	> 100 µM	> 100 µM	> 100 µM	> 100 µM	–	> 100 µM	> 100 µM	–	–	–	–	–	–	–	–
CC(C)N(C(C)C)P(OCCC#N)OC1CC(n2cnc3c(=O)[nH]cnc32)OC1COC(=O)NCCCCCCNC(=O)OC(C)(C)c1ccc(-c2ccccc2)cc1 (centres undefined)	> 100 µM	54 µM	32.6 µM	> 100 µM	> 100 µM	92.4 µM	34.6 µM	> 100 µM	76.1 µM	30.3 µM	32.7 µM	–	–	–	–	–	–	–	–
CC(=O)C1(O)Cc2c(O)c3c(c(O)c2C(OC2CC(N)C(O)C(C)O2)C1)C(=O)c1ccccc1C3=O (centres undefined)	0.388 µM and 0.0514 µM	0.115 µM and 0.163 µM	0.119 µM and 0.0672 µM	0.597 µM and 0.262 µM	0.097 µM and 0.0268 µM	0.597 µM and 0.817 µM	0.605 µM and 0.158 µM	0.62 µM and 0.174 µM	0.35 µM and 0.0968 µM	0.451 µM and 0.324 µM	0.243 µM and 0.0335 µM	< 0.0117	0.0214	0.0183	< 0.0114	0.0147	0.0145	0.0305 µM and < 0.0131 µM	0.0377
CN(C)CCNc1nc2c(no[n+]2[O-])c2ccccc12	81.9 µM	> 100 µM	65.4 µM	46 µM	40.4 µM	32.8 µM	30.3 µM	52.9 µM	> 100 µM	34.1 µM	35.1 µM	–	–	–	–	–	–	–	–
CCN(CC)CCNc1ccc2ncn3c4cc(=O)ccc4c(O)c1c23	10.7 µM	15.7 µM	5.36 µM	21 µM	10.6 µM	7.77 µM	14.4 µM	15.5 µM	9.97 µM	17.8 µM	5.91 µM	–	–	–	–	–	–	–	–
C#CCOC(=O)C(N)CCSC (centres undefined)	> 100 µM	> 100 µM	> 100 µM	> 100 µM	> 100 µM	> 100 µM	> 100 µM	> 100 µM	> 100 µM	> 100 µM	> 100 µM	–	–	–	–	–	–	–	–
COc1ccccc1N=C1SCCN1C(=S)Nc1ccc(S(=O)(=O)/N=C/N(C)C)cc1	> 100 µM	> 100 µM	–	> 100 µM	> 100 µM	> 100 µM	> 100 µM	> 100 µM	68.4 µM	> 100 µM	> 100 µM	–	–	–	–	–	–	–	–
CC1(C)c2ccccc2C(O)C12CCC(=O)CC2 (centres undefined)	> 100 µM	> 100 µM	> 100 µM	> 100 µM	> 100 µM	–	> 100 µM	23.2 µM	> 100 µM	> 100 µM	> 100 µM	–	–	–	–	–	–	–	–
C/C=C1\CC(C(=O)OCC)CCCCCCCCCCC1=O (centres undefined)	> 100 µM	> 100 µM	81.5 µM	> 100 µM	> 100 µM	> 100 µM	> 100 µM	> 100 µM	–	> 100 µM	80.8 µM	–	–	–	–	–	–	–	–
c1ccc(CCn2cncn2)cc1	> 100 µM	> 100 µM	> 100 µM	> 100 µM	> 100 µM	–	> 100 µM	> 100 µM	–	> 100 µM	–	–	–	–	–	–	–	–	–
CCN(CC)CCC(=O)c1ccc(Oc2ccc(F)cc2)cc1	> 100 µM	32.1 µM	–	32.7 µM	32.4 µM	57.6 µM	34.9 µM	30.3 µM	56.4 µM	34 µM	28.8 µM	–	–	–	–	–	–	–	–
CC(=O)O[C@H]1CC[C@H]2[C@@H]3CCC(C(C)=O)[C@H](C(=O)O)[C@H]3CC[C@]12C (some centres undefined)	> 100 µM	–	> 100 µM	> 100 µM	–	> 100 µM	> 100 µM	–	> 100 µM	> 100 µM	–	–	–	–	–	–	–	–	–
COc1cc2c(cc1OCCCCCOc1cc3c(cc1OC)C(=O)N1CCC[C@H]1CN3)N=C[C@@H]1CCCN1C2=O	34 µM	18.7 µM	3.65 µM	23.9 µM	27.6 µM	24.2 µM	10.8 µM	24.1 µM	–	31.9 µM	3.06 µM	–	–	–	–	–	–	–	–
O=C1NC2(C=Cc3c(ccc4ccccc34)O2)Oc2ccccc21 (centres undefined)	67.5 µM	63.4 µM	38.8 µM	> 100 µM	77.7 µM	> 100 µM	> 100 µM	40.8 µM	47.6 µM	–	39.9 µM	–	–	–	–	–	–	–	–
COC(=O)C1C2CC3C(OC(=O)C31)C2OC(=O)[C@](OC)(c1ccccc1)C(F)(F)F (some centres undefined)	–	> 100 µM	> 100 µM	> 100 µM	> 100 µM	> 100 µM	> 100 µM	> 100 µM	> 100 µM	> 100 µM	> 100 µM	–	–	–	–	–	–	–	–
CCOP(=O)(OCC)C(C)(C)OC(=O)NC#N	> 100 µM	> 100 µM	–	> 100 µM	> 100 µM	> 100 µM	> 100 µM	> 100 µM	> 100 µM	> 100 µM	> 100 µM	–	–	–	–	–	–	–	–
